Reference: US8921398B2 (Boehringer Ingelheim International GmbH, priority 2011, dated 2014)

Each molecule was assayed against T1, mutant form of the human GPR119 receptor (Homo sapiens, UniProt Q8TDV5, S329A/T327A) (assay: LANCE cAMP-384 assay in HEK293 cells stably expressing a mutant form of the human GPR119 receptor). Conditions: cAMP accumulation, GPR119 stable HEK293 cells, LANCE kit, 20 min at 37° C.
T1 construct: expressed in transfected cells
T1 sequence (Q8TDV5 with tags, fused parts or gaps T327A/S329A): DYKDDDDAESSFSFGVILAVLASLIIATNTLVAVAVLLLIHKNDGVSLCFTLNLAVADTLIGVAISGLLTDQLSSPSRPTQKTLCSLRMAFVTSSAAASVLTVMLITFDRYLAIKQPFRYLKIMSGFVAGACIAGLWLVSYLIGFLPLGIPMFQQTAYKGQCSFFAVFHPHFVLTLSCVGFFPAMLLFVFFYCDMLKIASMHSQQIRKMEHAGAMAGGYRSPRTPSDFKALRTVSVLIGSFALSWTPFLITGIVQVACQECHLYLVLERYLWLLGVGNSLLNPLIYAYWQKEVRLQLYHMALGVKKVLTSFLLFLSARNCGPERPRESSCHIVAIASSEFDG
Format: cell-based
Protocol: Quantitative detection of cAMP accumulation from cells expressing human GPR119 receptor is achieved using Perkin Elmer's LANCE cAMP-384 Kit (Cat#AD0264) according to the manufacturer's protocol. Briefly, HEK293 cells stably expressing a mutant form of the human GPR119 receptor as assay tool (Methionine 1 replaced with the amino acid sequence […], and T327 & S329 changed to alanines; SEQ ID No. 1) are grown to 50-70% confluency in cell culture media (DMEM, 10% heat inactivated Fetal Bovine Serum, 50 I.U./mL penicillin, 50 μg/mL streptomycin, 10 mM HEPES, 20 μg/mL G418 Sulfate). On the day of the assay, GPR119 stable HEK293 cells are lifted from the tissue culture plate and 1000 cells/well are incubated along with various concentrations of test compounds for 20 min at 37° C. Detection Buffer (50 mM HEPES, 10 mM calcium chloride, 0.35% Triton X-100, 1 mg/mL BSA) containing cAMP-specific antibody is then added to all wells and allowed to equilibrate in the dark for 10 minutes at room temperature. Upon equilibration, Detection Buffer containing europium-labeled cAMP tracer complex is added to all wells and allowed to react for 1 hour at room temperature. After 1 hour, bound europium-labeled cAMP tracer is measured using a Perkin Elmer Envision plate reader. The quantity of cAMP generated in each well is derived from a standard curve. EC50 is determined using nonlinear regression analysis of the cAMP values over a range of agonist concentration (12 points spanning the range from 30 μM to 100 pM).

Q: Which EC50 does the source give for `Cc1nccn1-c1ncc(C(=O)N(C2CC2)C2CCN(c3ncc(Cl)cn3)CC2)cn1` [Example 67] here?
A: 45 nM

Q: With `Cc1nnnn1-c1ccc(C(=O)N(C2CC2)[C@@H]2CCN(c3ccc(C(F)(F)F)cn3)C[C@@H]2F)cn1` (single isomer, unassigned) [Example 77] as the molecule, how does the EC50 read?
A: 13 nM

Q: Which EC50 does the source give for `Cc1ncnn1-c1ccc(C(=O)N(C2CC2)C2CCN(c3ncc(C(F)(F)F)cc3F)CC2)cn1` [Example 44] here?
A: 22 nM

Q: With `Cc1ncnn1-c1ccc(C(=O)N(C2CC2)C2CCN(c3ncc(Cl)cn3)CC2)cn1` [Example 64] as the molecule, how does the EC50 read?
A: 252 nM

Q: `Cc1ncnn1-c1ccc(C(=O)N(C2CC2)[C@@H]2CCN(c3ccc(C(F)(F)F)cn3)C[C@@H]2F)cn1` (single isomer, unassigned) [Example 76] was tested. Which EC50 did it give?
A: 46 nM

Q: For `CCc1cnc(N2CC[C@@H](N(C(=O)c3cnc(-n4ccnc4C)cn3)C3CC3)[C@@H](F)C2)nc1` (single isomer, unassigned) [Example 90], which EC50 is on record?
A: 44 nM

Q: Which EC50 does the source give for `CCc1cnc(N2CCC(N(C(=O)c3cn(-c4ccc(C#N)cc4F)cn3)C3CC3)C(F)C2)nc1` (single isomer, unassigned) [Example 109] here?
A: 53 nM

Q: Which EC50 does the source give for `Cc1nccn1-c1ncc(C(=O)N(C2CC2)C2CCN(c3nc(C(C)C)no3)CC2)cn1` [Example 55] here?
A: 512 nM

Q: For `Cc1nccn1-c1cnc(C(=O)N(C2CC2)C2CCN(c3ncc(Cl)cn3)CC2)cn1` [Example 65], which EC50 is on record?
A: 333 nM

Q: How did the EC50 turn out when `CCc1cnc(N2CC[C@@H](N(C(=O)c3cn(-c4ccc(S(C)(=O)=O)cc4F)cn3)C3CC3)[C@@H](F)C2)nc1` (single isomer, unassigned) [Example 108] was run?
A: 82 nM

Q: Which EC50 does the source give for `Cc1ncn(-c2cnc(C(=O)N(C3CC3)C3CCN(c4nc(C(C)C)no4)CC3)cn2)n1` [Example 56] here?
A: 473 nM

Q: How did the EC50 turn out when `CCc1cnc(N2CC[C@@H](N(C(=O)c3cn(-c4ccc(C#N)cn4)cn3)C3CC3)[C@@H](F)C2)nc1` (single isomer, unassigned) [Example 107] was run?
A: 188 nM

Q: For `CCc1cnc(N2CCC(N(C(=O)c3cn(-c4ccc(C#N)cn4)cn3)C3CC3)CC2)nc1` [Example 104], which EC50 is on record?
A: 61 nM

Q: Which EC50 does the source give for `Cc1ncn(-c2cnc(C(=O)N(C3CC3)[C@@H]3CCN(c4ncc(Cl)cn4)C[C@@H]3F)cn2)n1` (single isomer, unassigned) [Example 98] here?
A: 14 nM

Q: `Cc1nccn1-c1ncc(C(=O)N(C2CC2)[C@@H]2CCN(c3ncc(Cl)cn3)C[C@@H]2F)cn1` (single isomer, unassigned) [Example 95] was tested. Which EC50 did it give?
A: 7 nM

Q: With `Cc1ncn(-c2cnc(C(=O)N(C3CC3)C3CCN(c4ncc(C(F)(F)F)cc4F)CC3)cn2)n1` [Example 48] as the molecule, how does the EC50 read?
A: 27 nM

Q: How did the EC50 turn out when `CCc1cnc(N2CC[C@@H](N(C(=O)c3cnc(-n4cncn4)nc3)C3CC3)[C@@H](F)C2)nc1` (single isomer, unassigned) [Example 91] was run?
A: 202 nM

Q: Which EC50 does the source give for `CCc1cnc(N2CC[C@@H](N(C(=O)c3cnc(-n4ccnc4C)nc3)C3CC3)[C@@H](F)C2)nc1` (single isomer, unassigned) [Example 87] here?
A: 4 nM

Q: `CCc1cnc(N2CC[C@@H](N(C(=O)c3cnc(-n4cncn4)cn3)C3CC3)[C@@H](F)C2)nc1` (single isomer, unassigned) [Example 86] was tested. Which EC50 did it give?
A: 5 nM

Q: Which EC50 does the source give for `CCc1cnc(N2CCC(N(C(=O)c3cn(-c4ccc(C#N)cc4F)cn3)C3CC3)CC2)nc1` [Example 106] here?
A: 57 nM

Q: Which EC50 does the source give for `CCc1cnc(N2CC[C@@H](N(C(=O)c3ccc(-n4ncnc4C)nc3)C3CC3)[C@@H](F)C2)nc1` (single isomer, unassigned) [Example 84] here?
A: 15 nM

Q: Which EC50 does the source give for `Cc1nnnn1-c1ccc(C(=O)N(C2CC2)C2CCN(c3ncc(C(F)(F)F)cc3F)CC2)cn1` [Example 49] here?
A: 9 nM

Q: With `Cc1ncnn1-c1ncc(C(=O)N(C2CC2)[C@@H]2CCN(c3ccc(C(F)(F)F)cn3)C[C@@H]2F)cn1` (single isomer, unassigned) [Example 103] as the molecule, how does the EC50 read?
A: 391 nM

Q: For `O=C(c1cnc(-n2cncn2)nc1)N(C1CC1)C1CCN(c2ncc(C(F)(F)F)cc2F)CC1` [Example 47], which EC50 is on record?
A: 125 nM

Q: Which EC50 does the source give for `Cc1ncnn1-c1ncc(C(=O)N(C2CC2)C2CCN(c3ncc(C(F)(F)F)cc3F)CC2)cn1` [Example 50] here?
A: 148 nM

Q: For `CCc1cnc(N2CC[C@@H](N(C(=O)c3cn(-c4ccc(C#N)cc4F)c(C)n3)C3CC3)[C@@H](F)C2)nc1` (single isomer, unassigned) [Example 112], which EC50 is on record?
A: 789 nM

Q: Which EC50 does the source give for `Cc1nnnn1-c1ccc(C(=O)N(C2CC2)[C@H]2CCN(c3ccc(C(F)(F)F)cn3)C[C@H]2F)cn1` (single isomer, unassigned) [Example 70] here?
A: 127 nM

Q: For `CCc1cnc(N2CC[C@@H](N(C(=O)c3ccc(-n4nnnc4C)nc3)C3CC3)[C@@H](F)C2)nc1` (single isomer, unassigned) [Example 85], which EC50 is on record?
A: 20 nM

Q: `Cc1ncn(-c2cnc(C(=O)N(C3CC3)C3CCN(c4ncc(Cl)cn4)CC3)cn2)n1` [Example 68] was tested. Which EC50 did it give?
A: 125 nM

Q: For `Cc1ncnn1-c1ccc(C(=O)N(C2CC2)C2CCN(c3nc(C(C)C)no3)CC2)cn1` [Example 52], which EC50 is on record?
A: 231 nM

Q: For `CCc1cnc(N2CCC(N(C(=O)c3cnc(-n4ccnc4C)cn3)C3CC3)CC2)nc1` [Example 59], which EC50 is on record?
A: 1240 nM

Q: For `CCc1cnc(N2CC[C@@H](N(C(=O)c3cnc(-n4cncn4)cn3)C3CC3)[C@@H](F)C2)nc1` (single isomer, unassigned) [Example 92], which EC50 is on record?
A: 609 nM

Q: How did the EC50 turn out when `Cc1nnnn1-c1ccc(C(=O)N(C2CC2)C2CCN(c3nc(C(C)C)no3)CC2)cn1` [Example 57] was run?
A: 231 nM

Q: For `Cc1nccn1-c1ccc(C(=O)N(C2CC2)[C@H]2CCN(c3ccc(C(F)(F)F)cn3)C[C@H]2F)cn1` (single isomer, unassigned) [Example 73], which EC50 is on record?
A: 391 nM

Q: Which EC50 does the source give for `Cc1nccn1-c1ccc(C(=O)N(C2CC2)C2CCN(c3ncc(Cl)cn3)CC2)cn1` [Example 63] here?
A: 385 nM

Q: Which EC50 does the source give for `CCc1cnc(N2CC[C@@H](N(C(=O)c3cn(-c4ccc(C#N)cn4)c(C)n3)C3CC3)[C@@H](F)C2)nc1` (single isomer, unassigned) [Example 110] here?
A: 363 nM

Q: How did the EC50 turn out when `O=C(c1cnc(-n2cncn2)cn1)N(C1CC1)[C@H]1CCN(c2ccc(C(F)(F)F)cn2)C[C@H]1F` (single isomer, unassigned) [Example 71] was run?
A: 94 nM

Q: With `Cc1nnnn1-c1ccc(C(=O)N(C2CC2)[C@@H]2CCN(c3ncc(Cl)cn3)C[C@@H]2F)cn1` (single isomer, unassigned) [Example 94] as the molecule, how does the EC50 read?
A: 8 nM

Q: Which EC50 does the source give for `Cc1nccn1-c1ncc(C(=O)N(C2CC2)[C@H]2CCN(c3ccc(C(F)(F)F)cn3)C[C@H]2F)cn1` (single isomer, unassigned) [Example 72] here?
A: 56 nM

Q: With `Cc1ncn(-c2cnc(C(=O)N(C3CC3)[C@@H]3CCN(c4ccc(C(F)(F)F)cn4)C[C@@H]3F)cn2)n1` (single isomer, unassigned) [Example 82] as the molecule, how does the EC50 read?
A: 35 nM

Q: `O=C(c1cnc(-n2cncn2)nc1)N(C1CC1)C1CCN(c2ncc(Cl)cn2)CC1` [Example 66] was tested. Which EC50 did it give?
A: 73 nM

Q: With `Cc1nccn1-c1cnc(C(=O)N(C2CC2)[C@@H]2CCN(c3ccc(C(F)(F)F)cn3)C[C@@H]2F)cn1` (single isomer, unassigned) [Example 83] as the molecule, how does the EC50 read?
A: 12 nM

Q: How did the EC50 turn out when `Cc1nccn1-c1cnc(C(=O)N(C2CC2)[C@H]2CCN(c3ccc(C(F)(F)F)cn3)C[C@H]2F)cn1` (single isomer, unassigned) [Example 75] was run?
A: 341 nM

Q: How did the EC50 turn out when `Cc1ncn(-c2cnc(C(=O)N(C3CC3)[C@H]3CCN(c4ccc(C(F)(F)F)cn4)C[C@H]3F)cn2)n1` (single isomer, unassigned) [Example 74] was run?
A: 411 nM
